pEC50: −log10 of the molar value. Where two headings read alike, the source gives them in different places.

The values that follow come from patent US8110681B2, “Compounds for the treatment of spinal muscular atrophy and other uses” (The United States of America as represented by the …, priority 2006, dated 2012).

The subject of the assay is SMN2-linked luciferase-reporter gene construct. As to the kind of experiment: SMN splice reporter assay (SMN2-linked luciferase reporter, Example 10). The conditions noted are these: for pEC50: SMN2-linked luciferase reporter. Format: cell-based. An excerpt:
Cervical carcinoma cell lines were transformed with a SMN2-linked luciferase-reporter gene construct. The reporter is designed to detect shifts in the alternative splicing of SMN2 sequences. In particular, the reporter is constructed as a fusion of the alternatively spliced sequences of the SMN2 gene and the luciferase gene. Luciferase sequences are in the correct translational reading frame only when the SMN2 sequences are spliced according to the normal SMN1 mechanism (e.g., splicing to include exon 7), which allows for translation of the stable SMN protein. Compounds were tested in the assay by administering the compound to the cell line and detecting an increase in the luciferase activity. The assay is described in greater detail in Zhang et al., Gene Ther., 8, 1532-8 (2001). Compounds were administered as described in Lunn et al, Chem. & Biol, 11, 1489-1493 (2004).
The results are reported as a fold-increase over a baseline reading of transformed cells without any test compound.

Where [1] appears, read: maximum fold increase of reporter signal, average, read-out: SMN Splice Reporter Assay (Example 10) Avg MaxFold Increase.

As to `CC(C(=O)OC(C)(C)C)c1ccc(N2Cc3c(cccc3-c3ccc(Cl)cc3)C2=O)cc1` (centres unmarked) [ALB-112190], the maximal fold induction under setting [1] amounted to 1.1.

Consider `CC(C(=O)OC(C)(C)C)c1ccc(N2Cc3c(cccc3-c3cccs3)C2=O)cc1` (centres unmarked) [ALB-112191], for which the maximal fold induction under setting [1] came out at 1.12.

For the setting “average”, `COC(=O)C(C)c1ccc(N2Cc3ccccc3C2)cc1` (centres unmarked) [ALB-112192] had a pEC50 of 5.24. For the same compound, under setting [1], the maximal fold induction was 1.41.

Regarding `CC(C(=O)OC(C)(C)C)c1ccc(N2Cc3ccccc3C2=O)c(-c2cncnc2)c1` (centres unmarked) [ALB-112194], the maximal fold induction under setting [1] was found to be 1.1.

On to `CC(C(=O)OC(C)(C)C)c1ccc(N2Cc3ccccc3C2=O)cc1-c1cncnc1` (centres unmarked) [ALB-112195], for which, under setting [1], the maximal fold induction was 1.06.

Consider `CC(C(=O)OC(C)(C)C)c1ccc(N2Cc3ccccc3C2=O)c(-c2cccs2)c1` (centres unmarked) [ALB-112196], for which, under setting [1], the maximal fold induction stood at 1.09.

In the case of `CC(C(=O)OC(C)(C)C)c1ccc(N2Cc3ccccc3C2=O)cc1-c1ccccc1` (centres unmarked) [ALB-112197], the maximal fold induction under setting [1] was 1.07.

Take `CC(C(=O)O)c1ccc(N2Cc3ccccc3C2=O)c(-c2cccnc2)c1` (centres unmarked) [ALB-112198]: the maximal fold induction under setting [1] was determined as 1.12.

As to `CC(C(=O)O)c1ccc(N2Cc3ccccc3C2=O)cc1-c1cccnc1` (centres unmarked) [ALB-112199], the maximal fold induction under setting [1] is 1.08.

In the case of `CC(C(=O)O)c1ccc(N2Cc3c(cccc3-c3ccccc3)C2=O)cc1` (centres unmarked) [ALB-112220], the maximal fold induction under setting [1] was 1.22.

For the compound `Cc1ccc(-c2cccc3c2CN(c2ccc(C(C)C(=O)O)cc2)C3=O)cc1` (centres unmarked) [ALB-112221], under setting [1], the maximal fold induction was found to be 1.33.

On to `COc1ccc(-c2cccc3c2CN(c2ccc(C(C)C(=O)O)cc2)C3=O)cc1` (centres unmarked) [ALB-112222], for which the maximal fold induction under setting [1] came to 1.42.

`CC(C(=O)O)c1ccc(N2Cc3c(cccc3-c3ccc(Cl)cc3)C2=O)cc1` (centres unmarked) [ALB-112223] had a pEC50 (average) of 4.96. Under setting [1], the maximal fold induction was found to be 1.31.

As to `CC(C(=O)O)c1ccc(N2Cc3c(cccc3-c3cccnc3)C2=O)cc1` (centres unmarked) [ALB-112224], the maximal fold induction under setting [1] amounted to 1.3.

With `CC(C(=O)O)c1ccc(N2Cc3c(cccc3-c3cccs3)C2=O)cc1` (centres unmarked) [ALB-112225], under setting [1], the maximal fold induction was 1.07.

The compound `CC(C(=O)O)c1ccc(N2Cc3c(cccc3-c3ccc(Cl)c(Cl)c3)C2=O)cc1` (centres unmarked) [ALB-112226] had a pEC50 (average) of 4.58. Further, the maximal fold induction under setting [1] was determined as 1.44.

For the setting “average”, `CC(C(=O)O)c1ccc(N2Cc3cc4ccsc4cc3C2=O)cc1` (centres unmarked) [ALB-112228] gave a pEC50 of 6.17. Moreover, the maximal fold induction under setting [1] was 1.27.

With `CC(C(=O)O)c1ccc(N2Cc3cccnc3C2=O)cc1` (centres unmarked) [ALB-112229a], under setting [1], the maximal fold induction was 1.13.

As to `CC(C)(C)OC(=O)Cc1ccc(N2Cc3ccccc3C2=O)cc1` [ALB-112230], under setting [1], the maximal fold induction was determined as 1.1.

For the compound `CC(C(=O)O)c1ccc(N2Cc3ccccc3C2=O)c(-c2cncnc2)c1` (centres unmarked) [ALB-112231], under setting [1], the maximal fold induction was found to be 1.08.

For the compound `CC(C(=O)O)c1ccc(N2Cc3ccccc3C2=O)cc1-c1cncnc1` (centres unmarked) [ALB-112232], the maximal fold induction under setting [1] is 1.05.

Regarding `CC(C(=O)O)c1ccc(N2Cc3ccccc3C2=O)c(-c2cccs2)c1` (centres unmarked) [ALB-112233], the maximal fold induction under setting [1] was 1.03.

As to `CC(C(=O)O)c1ccc(N2Cc3ccccc3C2=O)cc1-c1ccccc1` (centres unmarked) [ALB-112234], the pEC50 (average) was 4.60. In addition, the maximal fold induction under setting [1] is 1.26.

Consider `O=C(O)Cc1ccc(N2Cc3ccccc3C2=O)cc1` [ALB-112235], for which the maximal fold induction under setting [1] is 0.941.

On to `CC(C(=O)OC(C)(C)C)c1ccc(N2Cc3ccc(Br)cc3C2=O)cc1` (centres unmarked) [ALB-112327], for which the pEC50 (average) is 5.38. Moreover, under setting [1], the maximal fold induction turned out to be 1.47.

On to `CC(C(=O)OC(C)(C)C)c1ccc(N2Cc3ccccc3C2=O)cc1-c1ccc(Cl)cc1` (centres unmarked) [ALB-112328], for which the maximal fold induction under setting [1] worked out at 1.04.

Turning to `CC(C(=O)O)c1ccc(N2Cc3ccccc3C2=O)cc1-c1ccc(Cl)cc1` (centres unmarked) [ALB-112329], the maximal fold induction under setting [1] worked out at 1.09.

On to `CC(C#N)c1ccc(N2Cc3ccccc3C2=O)cc1` (centres unmarked) [ALB-112330], for which the pEC50 (average) is 6.59. Further, the maximal fold induction under setting [1] was determined as 1.46.

As for `CC(C(=O)OC(C)(C)C)c1ccc(N2Cc3c(cccc3-c3cncnc3)C2=O)cc1` (centres unmarked) [ALB-112349], under setting [1], the maximal fold induction was found to be 1.06.

Take `CC(C(=O)OC(C)(C)C)c1ccc(N2Cc3c(C#N)cccc3C2=O)cc1` (centres unmarked) [ALB-112350]: the maximal fold induction under setting [1] is 1.18.

In the case of `CC(C(=O)O)c1ccc(N2Cc3c(C#N)cccc3C2=O)cc1` (centres unmarked) [ALB-112351], the maximal fold induction under setting [1] came out at 1.21.

As to `CC(C(=O)O)c1ccc(N2Cc3ccc(Br)cc3C2=O)cc1` (centres unmarked) [ALB-112352], the pEC50 (average) is 6.89. Moreover, the maximal fold induction (read-out: SMN Splice Reporter Assay (Example 10) Avg MaxFold Increase, maximum fold increase of reporter signal, average, heading: SMN Splice Reporter Assay Avg MaxFold Increase) is 1.12.

`CC(C(=O)O)c1ccc(N2Cc3c(cccc3-c3cncnc3)C2=O)cc1` (centres unmarked) [ALB-112353]: where the note is “average”, the pEC50 is 4.80. The maximal fold induction under setting [1] was 1.53.

`CC(=O)c1ccc(N2Cc3ccccc3C2=O)cc1` [ALB-112360] showed a pEC50 (average) of 6.37. Also, the maximal fold induction under setting [1] worked out at 1.14.

Consider `CC(C(=O)OC(C)(C)C)c1cccc(N2Cc3ccccc3C2=O)c1` (centres unmarked) [ALB-112361], for which, under setting [1], the maximal fold induction worked out at 1.09.

Take `CC(C)(C)OC(=O)C1(c2ccc(N3Cc4ccccc4C3=O)cc2)CCCC1` [ALB-112362]: the maximal fold induction under setting [1] was 1.05.

As to `CCC(C(=O)OC(C)(C)C)c1ccc(N2Cc3ccccc3C2=O)cc1` (centres unmarked) [ALB-112364], under “average”, the pEC50 is 5.49. In addition, the maximal fold induction under setting [1] was determined as 1.21.

As for `CC(C)(C)OC(=O)C1(c2ccc(N3Cc4ccccc4C3=O)cc2)CC1` [ALB-112365], under “average”, the pEC50 was 4.91. Further, the maximal fold induction under setting [1] was found to be 1.5.

In the case of `O=C1c2ccccc2CN1c1ccc(C2(C(=O)O)CCCC2)cc1` [ALB-112431], the maximal fold induction under setting [1] was 1.21.

For the setting “average”, `CCC(C(=O)O)c1ccc(N2Cc3ccccc3C2=O)cc1` (centres unmarked) [ALB-112433] showed a pEC50 of 5.38. Besides, the maximal fold induction under setting [1] turned out to be 1.32.

Take `O=C1c2ccccc2CN1c1ccc(C2(C(=O)O)CC2)cc1` [ALB-112434]: under setting [1], the maximal fold induction was found to be 1.28.

Turning to `CC(C(=O)OC(C)(C)C)c1ccc(N2Cc3ccccc3C2=O)cc1C#N` (centres unmarked) [ALB-112435], the pEC50 (average) was 5.22. The maximal fold induction under setting [1] amounted to 1.2.

Regarding `CC(C(=O)OC(C)(C)C)c1ccc(N2Cc3ccccc3C2=O)c(C#N)c1` (centres unmarked) [ALB-112436], the maximal fold induction under setting [1] is 1.07.

As for `CC(C(=O)O)c1ccc(N2Cc3ccccc3C2=O)cc1C#N` (centres unmarked) [ALB-112437], the maximal fold induction under setting [1] is 1.09.

The compound `Cc1cc(N2Cc3ccccc3C2=O)ccc1C(C)C(=O)OC(C)(C)C` (centres unmarked) [ALB-112438] gave a pEC50 (average) of 5.57. Also, the maximal fold induction under setting [1] worked out at 1.42.

`CC(C(=O)OC(C)(C)C)c1ccc(N2Cc3ccc(-c4ccccc4)cc3C2=O)cc1` (centres unmarked) [ALB-112441]: under setting [1], the maximal fold induction worked out at 1.08.

As for `Cc1ccc(-c2ccc3c(c2)C(=O)N(c2ccc(C(C)C(=O)OC(C)(C)C)cc2)C3)cc1` (centres unmarked) [ALB-112442], the maximal fold induction under setting [1] worked out at 1.11.

As for `CC(C(=O)OC(C)(C)C)c1ccc(N2Cc3ccc(-c4ccc(Cl)cc4)cc3C2=O)cc1` (centres unmarked) [ALB-112443], the maximal fold induction under setting [1] is 1.07.

As to `CC(C(=O)OC(C)(C)C)c1ccc(N2Cc3cc(C#N)ccc3C2=O)cc1` (centres unmarked) [ALB-112444], the pEC50 (average) is 6.51. Also, the maximal fold induction under setting [1] was 1.04.

With `CC(C(=O)OC(C)(C)C)c1ccc(N2Cc3ccc(C#N)cc3C2=O)cc1` (centres unmarked) [ALB-112445], the maximal fold induction under setting [1] stood at 1.13.

Under “average”, `CC(C(=O)O)c1ccc(N2Cc3ccc(-c4ccccc4)cc3C2=O)cc1` (centres unmarked) [ALB-112446] showed a pEC50 of 5.77. Further, under setting [1], the maximal fold induction came to 1.45.

In turn, `Cc1ccc(-c2ccc3c(c2)C(=O)N(c2ccc(C(C)C(=O)O)cc2)C3)cc1` (centres unmarked) [ALB-112447] had a pEC50 (average) of 5.70. Also, the maximal fold induction under setting [1] turned out to be 1.27.

On to `COc1ccc(-c2ccc3c(c2)C(=O)N(c2ccc(C(C)C(=O)O)cc2)C3)cc1` (centres unmarked) [ALB-112448], for which, where the note is “average”, the pEC50 was 5.21. Moreover, the maximal fold induction under setting [1] was 1.55.

For `CC(C(=O)O)c1ccc(N2Cc3ccc(-c4ccc(Cl)cc4)cc3C2=O)cc1` (centres unmarked) [ALB-112449], the maximal fold induction under setting [1] was found to be 1.16.

On to `COc1ccc(-c2ccc3c(c2)C(=O)N(c2ccc(C(C)C(=O)OC(C)(C)C)cc2)C3)cc1` (centres unmarked) [ALB-112450], for which the maximal fold induction under setting [1] was 1.09.

As to `CC(C(=O)OC(C)(C)C)c1ccc(N2Cc3cccc(C#N)c3C2=O)cc1` (centres unmarked) [ALB-112472], the maximal fold induction under setting [1] came to 1.12.

Where the note is “average”, `CC(C(=O)OC(C)(C)C)c1ccc(N2Cc3ccc(-c4cccnc4)cc3C2=O)cc1` (centres unmarked) [ALB-112473] showed a pEC50 of 8.70. Besides, the maximal fold induction under setting [1] was found to be 1.03.

Consider `CC(C(=O)OC(C)(C)C)c1ccc(N2Cc3ccc(-c4cccs4)cc3C2=O)cc1` (centres unmarked) [ALB-112474], for which the maximal fold induction under setting [1] worked out at 1.18.

For the compound `CC(C(=O)OC(C)(C)C)c1ccc(N2Cc3ccc(-c4ccc(Cl)c(Cl)c4)cc3C2=O)cc1` (centres unmarked) [ALB-112475], the pEC50 (average) was 6.94. Under setting [1], the maximal fold induction was determined as 1.05.

For the compound `CC(C(=O)OC(C)(C)C)c1ccc(N2Cc3ccc(-c4cncnc4)cc3C2=O)cc1` (centres unmarked) [ALB-112476], under setting [1], the maximal fold induction turned out to be 1.08.

Regarding `CC(C(=O)O)c1ccc(N2Cc3cc(C#N)ccc3C2=O)cc1` (centres unmarked) [ALB-112477], where the note is “average”, the pEC50 was 5.16. For the same compound, the maximal fold induction under setting [1] turned out to be 1.18.

Under “average”, `CC(C(=O)O)c1ccc(N2Cc3ccc(C#N)cc3C2=O)cc1` (centres unmarked) [ALB-112478] showed a pEC50 of 5.69. In addition, under setting [1], the maximal fold induction was 1.23.

With `Cc1cc(C(C)C(=O)OC(C)(C)C)ccc1N1Cc2ccccc2C1=O` (centres unmarked) [ALB-112483], the maximal fold induction under setting [1] worked out at 1.03.
